Data from ChEMBL document CHEMBL1156552, “Novel ligands rationally designed for characterizing I2-imidazoline binding sites nature and functions” (J Med Chem, 2008).
Active and inactive are the calls of the source. No cut-off for these calls is given here.

Assays:
[1] = molecular target: T1, Nischarin (Rattus norvegicus, UniProt Q4G017); experiment: Displacement of [3H]clonidine from Imidazoline receptor 1 in Sprague-Dawley rat kidney membrane; type: cell membranes
[2] = Displacement of [3H]2-BFI from Imidazoline receptor 2 in Sprague-Dawley rat whole brain membrane
[3] = Displacement of [3H]RX821002 from Adrenergic alpha2 receptor in Sprague-Dawley rat whole brain membrane
[4] = organism: Rattus norvegicus; experiment: Selectivity ratio, IC50 for Imidazoline receptor 1 in Sprague-Dawley rat kidney membrane to Ki for Imidazoline receptor 2 in Sprague-Dawley rat whole brain membrane; type: cell membranes
[5] = organism: Rattus norvegicus; experiment: Selectivity ratio, IC50 for Imidazoline receptor 1 in Sprague-Dawley rat kidney membrane to Ki for alpha2 adrenoceptor in Sprague-Dawley rat whole brain membrane; type: cell membranes
[6] = test system: Mus musculus; experiment: Antinociceptive activity in CD1 mouse at 10 mg/kg, sc after 30 mins by tail flick test; type: functional, organism-based; design: dose 10 mg/kg
[7] = test system: Mus musculus; experiment: Increase in morphine-induced analgesia in CD1 mouse at 10 mg/kg, sc after 30 mins by tail flick test relative to control; type: functional; settings: route subcutaneous
[8] = test system: Mus musculus; experiment: Decrease in morphine-induced analgesia in CD1 mouse at 10 mg/kg, sc after 30 mins by tail flick test relative to control; type: functional; design: scale not given: the % may be the effect or the level left; settings: route subcutaneous
[9] = test system: Mus musculus; experiment: Antinociceptive activity in CD1 mouse at 20 mg/kg, sc after 30 mins by tail flick test; type: functional, organism-based; design: dose 20 mg/kg
[10] = test system: Mus musculus; experiment: Decrease in morphine-induced analgesia in CD1 mouse at 20 mg/kg, sc after 30 mins by tail flick test relative to control; type: functional; design: scale not given: the % may be the effect or the level left; settings: route subcutaneous
[11] = test system: Mus musculus; experiment: Reversal of decrease in morphine-induced analgesia in idazoxan pretreated CD1 mouse at 10 mg/kg, sc by tail flick assay; type: functional, organism-based; design: dose 10 mg/kg
[12] = Binding affinity to Imidazoline receptor 2
[13] = test system: Mus musculus; experiment: Effect on morphine-induced analgesia in yohimbine pretreated CD1 mouse at 10 mg/kg, sc by tail flick test; type: functional, organism-based; design: dose 10 mg/kg
[14] = test system: Mus musculus; experiment: Effect on morphine-induced analgesia in efaroxan pretreated CD1 mouse at 10 mg/kg, sc by tail flick test; type: functional, organism-based; design: dose 10 mg/kg
[15] = molecular target: T1, Nischarin; experiment: Displacement of [3H]clonidine from Imidazoline receptor 1 rat PC-12 cells; type: cell-based

T1 sequence (Q4G017 whole entry): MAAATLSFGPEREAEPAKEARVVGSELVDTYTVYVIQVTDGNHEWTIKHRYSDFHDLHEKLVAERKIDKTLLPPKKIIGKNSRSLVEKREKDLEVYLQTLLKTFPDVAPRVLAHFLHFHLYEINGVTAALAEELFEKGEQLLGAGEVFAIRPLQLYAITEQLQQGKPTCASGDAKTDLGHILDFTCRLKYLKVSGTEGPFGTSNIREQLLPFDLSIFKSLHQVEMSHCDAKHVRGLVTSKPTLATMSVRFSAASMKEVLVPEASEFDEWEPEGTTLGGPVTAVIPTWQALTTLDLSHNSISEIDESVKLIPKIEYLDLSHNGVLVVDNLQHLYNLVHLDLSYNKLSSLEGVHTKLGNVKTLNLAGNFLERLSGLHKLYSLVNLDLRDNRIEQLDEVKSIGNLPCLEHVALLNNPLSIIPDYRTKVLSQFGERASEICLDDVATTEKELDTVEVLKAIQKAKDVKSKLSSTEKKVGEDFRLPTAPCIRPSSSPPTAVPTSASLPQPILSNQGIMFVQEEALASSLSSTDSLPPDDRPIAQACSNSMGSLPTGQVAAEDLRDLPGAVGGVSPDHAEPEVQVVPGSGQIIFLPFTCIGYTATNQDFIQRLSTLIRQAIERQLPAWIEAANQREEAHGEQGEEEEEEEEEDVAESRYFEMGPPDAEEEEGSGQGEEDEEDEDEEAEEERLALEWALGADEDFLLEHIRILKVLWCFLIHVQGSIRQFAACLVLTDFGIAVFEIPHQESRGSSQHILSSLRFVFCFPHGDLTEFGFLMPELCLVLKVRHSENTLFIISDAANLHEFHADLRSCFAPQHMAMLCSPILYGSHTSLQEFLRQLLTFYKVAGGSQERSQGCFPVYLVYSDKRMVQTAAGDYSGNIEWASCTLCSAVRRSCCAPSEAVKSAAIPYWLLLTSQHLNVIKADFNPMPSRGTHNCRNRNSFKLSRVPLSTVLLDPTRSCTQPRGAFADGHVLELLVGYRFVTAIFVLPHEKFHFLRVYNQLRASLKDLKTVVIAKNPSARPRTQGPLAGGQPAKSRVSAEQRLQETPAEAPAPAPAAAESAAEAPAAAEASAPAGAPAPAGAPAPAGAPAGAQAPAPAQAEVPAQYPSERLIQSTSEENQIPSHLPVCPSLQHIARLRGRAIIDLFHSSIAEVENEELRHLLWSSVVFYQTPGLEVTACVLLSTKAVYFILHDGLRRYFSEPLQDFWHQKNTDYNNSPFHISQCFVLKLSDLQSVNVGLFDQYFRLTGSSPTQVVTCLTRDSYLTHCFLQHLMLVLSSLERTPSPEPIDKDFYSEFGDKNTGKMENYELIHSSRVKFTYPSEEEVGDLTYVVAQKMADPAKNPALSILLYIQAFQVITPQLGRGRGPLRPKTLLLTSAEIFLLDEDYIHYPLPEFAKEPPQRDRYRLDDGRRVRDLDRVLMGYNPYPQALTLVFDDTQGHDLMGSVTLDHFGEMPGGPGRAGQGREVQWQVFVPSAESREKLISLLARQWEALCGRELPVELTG

| Structure (SMILES) | IC50 [1] [µM] | Ki [2] [nM] | Ki [3] [nM] | Ratio [4] | Ratio [5] | pKi [12] | Ki [15] [µM] | Activity [6] | Activity [7] [%] | Activity [8] [%] | Activity [9] | Activity [10] [%] | Activity [11] | Activity [13] | Activity [14] |
| --- | --- | --- | --- | --- | --- | --- | --- | --- | --- | --- | --- | --- | --- | --- | --- |
| c1csc(CCC2=NCCN2)c1 | 2.88 | 7.72 | 820 | 373 | 106 | – | – | inactive | 34 | – | – | – | – | – | – |
| c1cncc(CCC2=NCCN2)c1 | 212 | 414 | 64800 | 512 | 157 | – | – | inactive | 23 | – | – | – | – | – | – |
| O=[N+]([O-])c1cccc(-c2ccccc2CCC2=NCCN2)c1 | 4 | 252 | 1120 | 16 | 4.4 | – | – | – | – | – | inactive | -29 | – | – | – |
| C1CCC(CCC2=NCCN2)CC1 | 3.57 | 4.8 | 2960 | 744 | 617 | – | – | inactive | 30 | – | – | – | – | – | – |
| c1ccc(-c2ccsc2)c(CCC2=NCCN2)c1 | 6.89 | 8.89 | 293 | 775 | 32.9 | – | – | inactive | – | -59 | – | – | – | – | – |

Now from value to molecule, other results behind:

| IC50 [1] [µM] | Ki [2] [nM] | Ki [3] [nM] | Ratio [4] | Ratio [5] | pKi [12] | Ki [15] [µM] | Structure (SMILES) | Activity [6] | Activity [7] [%] | Activity [8] [%] | Activity [9] | Activity [10] [%] | Activity [11] | Activity [13] | Activity [14] |
| --- | --- | --- | --- | --- | --- | --- | --- | --- | --- | --- | --- | --- | --- | --- | --- |
| 23.9 | 254 | 3540 | 94 | 13.9 | – | – | c1c[nH]c(CCC2=NCCN2)c1 | inactive | 14 | – | – | – | – | – | – |
| 7.3 | 73.5 | 926 | 99.3 | 12.6 | – | – | Oc1ccccc1CCC1=NCCN1 | inactive | – | -26 | – | – | – | – | – |
| 4.26 | 1.5 | 295 | 2840 | 197 | – | – | Clc1ccccc1CCC1=NCCN1 | inactive | – | -34 | – | – | – | – | – |
| – | 2.5 | 1980 | 1480 | 794 | 8.6 | – | c1ccc(CCC2=NCCN2)cc1 [PHENYZOLINE] | – | 60 | – | – | – | Active | inactive | inactive |
| – | 158 | 7130 | 40 | 45 | 6.8 | 6.34 | c1ccc(-c2ccccc2CCC2=NCCN2)cc1 | – | – | -41 | – | – | Active | inactive | inactive |
| 25.8 | 1.16 | 381 | 22300 | 328 | – | – | c1ccc2c(CCC3=NCCN3)cccc2c1 | inactive | 16 | – | – | – | – | – | – |
| 7.36 | 1.68 | 558 | 4380 | 332 | – | – | Cc1ccccc1CCC1=NCCN1 | inactive | – | -44 | – | – | – | – | – |
